Patent US20040142971A1, “BENZOTHIOPHENE COMPOUNDS HAVING ANTIINFECTIVE ACTIVITY” (GeneSoft, Inc., priority 2001, published 2004)

Key:
Assay in all cases: MIC, NCCLS broth microdilution
B. Cereus ATCC 11778 = assay type: cell-based, Bacillus cereus; conditions: A = B. Cereus ATCC 11778
Text: (§1) In vitro biological activity data were collected for a variety of microorganisms, including Bacillus cereus (ATCC 11778), Staphylococcus aureus (ATCC 27660 (a methicillin resistant strain (MRSA), ATCC 33591 and ATCC 43300); ATCC 13709, a methicillin sensitive strain (MSSA)); Streptococcus pneumoniae (ATCC 51422, a penicillin resistant strain (PRSP)), Enterococcus faecium (ATCC 51559, a vancomycin resistant strain (VRE)), and Staphylococcus epidermidis (ATCC 700586, a methycillin resistant strain (MRSE)). Additionally, antifungal activity data were collected for Candida albicans (ATCC 38247). Minimal inhibition concentrations (MIC's) were determined using the National Committee for Clinical Laboratory Standards (NCCLS) broth microdilution assay in microtiter plates, as set forth in: (1) the guidelines of the National Committee for Clinical Laboratory Standards (NCCLS) Document M7-A4 (NCCLS, 1997); (2) the guidelines of the National Committee for Clinical Laboratory Standards (NCCLS) Document M11-A4 (NCCLS, 1997); and (3) the guidelines and reference method of the National Committee for Clinical Laboratory Standards (NCCLS) Document M27-T (NCCLS, 1995). For antifungal essays, the method recommended in Murray, PR., 1995 Manual of Clinical Microbiology (ASM Press, Washington, D.C.), was employed.

[1] = system: S. aureus ATCC 13709 (methicillin sensitive strain, MSSA); assay type: cell-based, Staphylococcus aureus; conditions: C = S. aureus ATCC 13709
Text: as §1

[2] = system: S. aureus ATCC 27660 (methicillin resistant strain, MRSA); assay type: cell-based, Staphylococcus aureus; conditions: D = S. aureus ATCC 27660
Text: as §1

S. aureus ATCC 33591 = assay type: cell-based, Staphylococcus aureus; conditions: E = S. aureus ATCC 33591
Text: as §1

| Structure (SMILES) | Minimum Inhibitory Concentration (MIC) (B. Cereus ATCC 11778) | Minimum Inhibitory Concentration (MIC) [1] | Minimum Inhibitory Concentration (MIC) [2] | Minimum Inhibitory Concentration (MIC) (S. aureus ATCC 33591) |
| --- | --- | --- | --- | --- |
| Cn1cc(NC(=O)c2cc(NC(=O)c3sc4ccccc4c3Cl)cn2C)cc1C(=O)NCCN1CCC(O)CC1 [Ib-20a] | +++ (+++ = MIC ≦ 4) | +++ (+++ = MIC ≦ 4) | +++ (+++ = MIC ≦ 4) | – |
| Cn1cc(NC(=O)c2cc(NC(=O)c3cc(NC(=O)c4sc5cc6c(cc5c4Cl)OCO6)cn3C)cn2C)cc1C(=O)NCCN1CCSCC1 [Ib-20i] | +++ (+++ = MIC ≦ 4) | +++ (+++ = MIC ≦ 4) | +++ (+++ = MIC ≦ 4) | – |
| CN(C)c1ccc2c(Cl)c(C(=O)Nc3cc(C(=O)Nc4cc(C(=O)Nc5cc(C(=O)NCCN6CCOCC6)n(C)c5)n(C)c4)n(C)c3)sc2c1 [Ib-20k] | >32 µg/mL | +++ (+++ = MIC ≦ 4) | +++ (+++ = MIC ≦ 4) | – |
| Cn1cc(NC(=O)c2cc3ccccc3cn2)cc1C(=O)Nc1cc(C(=O)Nc2cn(C)c(C(=O)NCCN3CCOCC3)n2)n(C)c1 [Ib-58] | +++ (+++ = MIC ≦ 4) | +++ (+++ = MIC ≦ 4) | +++ (+++ = MIC ≦ 4) | +++ (+++ = MIC ≦ 4) |
| Cn1cc(NC(=O)c2cc(NC(=O)c3cc(NC(=O)c4cc5ccccc5cn4)c[nH]3)cn2C)cc1C(=O)NCCN1CCC(F)(F)CC1 [Ib-78] | +++ (+++ = MIC ≦ 4) | +++ (+++ = MIC ≦ 4) | +++ (+++ = MIC ≦ 4) | +++ (+++ = MIC ≦ 4) |
| Cn1cc(NC(=O)c2cc3cc4c(cc3s2)OCO4)cc1C(=O)NCCN1CCOCC1 [Ib-20t] | +++ (+++ = MIC ≦ 4) | +++ (+++ = MIC ≦ 4) | +++ (+++ = MIC ≦ 4) | +++ (+++ = MIC ≦ 4) |
| Cn1cc(NC(=O)c2sc3cc4c(cc3c2Cl)OCO4)cc1C(=O)NCCN1CCCCC1 [Ib-20n] | +++ (+++ = MIC ≦ 4) | +++ (+++ = MIC ≦ 4) | +++ (+++ = MIC ≦ 4) | +++ (+++ = MIC ≦ 4) |
| Cc1ccc2c(Cl)c(C(=O)Nc3cc(C(=O)Nc4cc(C(=O)Nc5cc(C(=O)NCCN6CCOCC6)n(C)c5)n(C)c4)n(C)c3)sc2c1 [Ib-20c] | +++ (+++ = MIC ≦ 4) | +++ (+++ = MIC ≦ 4) | +++ (+++ = MIC ≦ 4) | +++ (+++ = MIC ≦ 4) |
| Cn1cc(NC(=O)c2sc3cc4c(cc3c2Cl)OCO4)cc1C(=O)NCCN1CCOCC1 [Ib-20f] | +++ (+++ = MIC ≦ 4) | +++ (+++ = MIC ≦ 4) | +++ (+++ = MIC ≦ 4) | +++ (+++ = MIC ≦ 4) |
| CN(C)CCSCCn1cc(NC(=O)c2cc3ccccc3cn2)cc1C(=O)Nc1cc(C(=O)Nc2ccc3cnccc3c2)n(C)c1 [Ib-73] | +++ (+++ = MIC ≦ 4) | +++ (+++ = MIC ≦ 4) | +++ (+++ = MIC ≦ 4) | +++ (+++ = MIC ≦ 4) |
| Cn1cc(NC(=O)c2cc(NC(=O)c3cc(NC(=O)c4cc5ccccc5cn4)cs3)cn2C)cc1C(=O)NCCN1CCOCC1 [Ib-51] | +++ (+++ = MIC ≦ 4) | +++ (+++ = MIC ≦ 4) | +++ (+++ = MIC ≦ 4) | – |
| Cn1cc(NC(=O)c2cc(NC(=O)c3cc4cc5c(cc4s3)OCO5)cn2C)cc1C(=O)NCCN1CCOCC1 [Ib-20u] | +++ (+++ = MIC ≦ 4) | +++ (+++ = MIC ≦ 4) | +++ (+++ = MIC ≦ 4) | +++ (+++ = MIC ≦ 4) |
| Cn1cc(NC(=O)c2cc(NC(=O)c3cc(NC(=O)c4sc5cc6c(cc5c4Cl)OCO6)cn3C)cn2C)cc1C(=O)NCCN1CCCCC1 [Ib-20l] | +++ (+++ = MIC ≦ 4) | +++ (+++ = MIC ≦ 4) | +++ (+++ = MIC ≦ 4) | +++ (+++ = MIC ≦ 4) |
| Cn1cc(NC(=O)c2sc3cc4c(cc3c2Cl)OCO4)cc1C(=O)NCCN1CCC(F)(F)CC1 [Ib-20q] | >32 µg/mL | +++ (+++ = MIC ≦ 4) | +++ (+++ = MIC ≦ 4) | +++ (+++ = MIC ≦ 4) |
| CCN(CC)CCNC(=O)c1cc(NC(=O)c2cc(NC(=O)c3cc(NC(=O)c4sc5cc6c(cc5c4Cl)OCO6)cn3C)cn2C)cn1C [Ib-20h] | +++ (+++ = MIC ≦ 4) | +++ (+++ = MIC ≦ 4) | +++ (+++ = MIC ≦ 4) | +++ (+++ = MIC ≦ 4) |
| Cn1cc(NC(=O)c2cc3cc4c(cc3s2)OCO4)cc1C(=O)NCCN1CCSCC1 [Ib-20w] | +++ (+++ = MIC ≦ 4) | +++ (+++ = MIC ≦ 4) | +++ (+++ = MIC ≦ 4) | +++ (+++ = MIC ≦ 4) |
| Cn1cc(NC(=O)c2cc3ccccc3cn2)cc1C(=O)Nc1cc(C(=O)Nc2c[nH]c(C(=O)NCCN3CCSCC3)c2)n(C)c1 [Ib-54] | ++ (++ = MIC between 4 and 12) | + (+ = MIC from 12 to 32, inclusive) | + (+ = MIC from 12 to 32, inclusive) | – |
| CCN(CC)CCNC(=O)c1cc(NC(=O)c2cc(NC(=O)c3cc(NC(=O)c4cc5ccccc5cn4)cn3C)cn2C)sn1 [Ib-53] | ++ (++ = MIC between 4 and 12) | ++ (++ = MIC between 4 and 12) | + (+ = MIC from 12 to 32, inclusive) | – |
| Cn1cc(NC(=O)c2cc(NC(=O)c3cc(NC(=O)c4cc5cc6c(cc5s4)OCO6)cn3C)cn2C)cc1C(=O)NCCN1CCOCC1 [Ib-20v] | +++ (+++ = MIC ≦ 4) | +++ (+++ = MIC ≦ 4) | +++ (+++ = MIC ≦ 4) | +++ (+++ = MIC ≦ 4) |
| Cn1cc(NC(=O)c2cc(NC(=O)c3cc(NC(=O)c4sc5cc([N+](=O)[O-])ccc5c4Cl)cn3C)cn2C)cc1C(=O)NCCN1CCOCC1 [Ib-20j] | +++ (+++ = MIC ≦ 4) | +++ (+++ = MIC ≦ 4) | +++ (+++ = MIC ≦ 4) | +++ (+++ = MIC ≦ 4) |
| Cn1cc(NC(=O)c2cc3ccccc3cn2)cc1C(=O)Nc1cc(C(=O)Nc2ccc3sc(C(=O)NCCN4CCOCC4)cc3c2)n(C)c1 [Id-1] | >32 µg/mL | – | – | – |
| Cn1cc(NC(=O)c2cc3cc4c(cc3s2)OCO4)cc1C(=O)NCCN1CCCC1 [Ib-20x] | +++ (+++ = MIC ≦ 4) | +++ (+++ = MIC ≦ 4) | +++ (+++ = MIC ≦ 4) | +++ (+++ = MIC ≦ 4) |
| Cn1cc(NC(=O)c2cc(NC(=O)c3cc(NC(=O)c4sc5ccccc5c4Cl)cn3C)cn2C)cc1C(=O)NCC[N+]1(C)CCOCC1 [Ib-20b] | +++ (+++ = MIC ≦ 4) | +++ (+++ = MIC ≦ 4) | +++ (+++ = MIC ≦ 4) | +++ (+++ = MIC ≦ 4) |
| Cn1cc(NC(=O)c2cc3ccccc3cn2)cc1C(=O)Nc1cc(C(=O)Nc2cc(C(=O)NCCN3CCOCC3)ns2)n(C)c1 [Ib-52] | +++ (+++ = MIC ≦ 4) | +++ (+++ = MIC ≦ 4) | ++ (++ = MIC between 4 and 12) | – |
